Assay results published in PMC11016761, “Production of Mono-Hydroxylated Derivatives of Terpinen-4-ol by Bacterial CYP102A1 Enzymes” (Journal of Microbiology and Biotechnology, 2023).

Target: CYP102A1 (Priestia megaterium, UniProt P14779, E144G/E268V/F82I/F88V/L189Q/N214S/R48L)
Assay: UV-visible spectral binding titration (type II shift); also turnover by HPLC with NADPH-generating system (Km […])

CYP102A1, sequence (P14779 whole entry R48L/F82I/F88V/E144G/L189Q/N214S/E268V): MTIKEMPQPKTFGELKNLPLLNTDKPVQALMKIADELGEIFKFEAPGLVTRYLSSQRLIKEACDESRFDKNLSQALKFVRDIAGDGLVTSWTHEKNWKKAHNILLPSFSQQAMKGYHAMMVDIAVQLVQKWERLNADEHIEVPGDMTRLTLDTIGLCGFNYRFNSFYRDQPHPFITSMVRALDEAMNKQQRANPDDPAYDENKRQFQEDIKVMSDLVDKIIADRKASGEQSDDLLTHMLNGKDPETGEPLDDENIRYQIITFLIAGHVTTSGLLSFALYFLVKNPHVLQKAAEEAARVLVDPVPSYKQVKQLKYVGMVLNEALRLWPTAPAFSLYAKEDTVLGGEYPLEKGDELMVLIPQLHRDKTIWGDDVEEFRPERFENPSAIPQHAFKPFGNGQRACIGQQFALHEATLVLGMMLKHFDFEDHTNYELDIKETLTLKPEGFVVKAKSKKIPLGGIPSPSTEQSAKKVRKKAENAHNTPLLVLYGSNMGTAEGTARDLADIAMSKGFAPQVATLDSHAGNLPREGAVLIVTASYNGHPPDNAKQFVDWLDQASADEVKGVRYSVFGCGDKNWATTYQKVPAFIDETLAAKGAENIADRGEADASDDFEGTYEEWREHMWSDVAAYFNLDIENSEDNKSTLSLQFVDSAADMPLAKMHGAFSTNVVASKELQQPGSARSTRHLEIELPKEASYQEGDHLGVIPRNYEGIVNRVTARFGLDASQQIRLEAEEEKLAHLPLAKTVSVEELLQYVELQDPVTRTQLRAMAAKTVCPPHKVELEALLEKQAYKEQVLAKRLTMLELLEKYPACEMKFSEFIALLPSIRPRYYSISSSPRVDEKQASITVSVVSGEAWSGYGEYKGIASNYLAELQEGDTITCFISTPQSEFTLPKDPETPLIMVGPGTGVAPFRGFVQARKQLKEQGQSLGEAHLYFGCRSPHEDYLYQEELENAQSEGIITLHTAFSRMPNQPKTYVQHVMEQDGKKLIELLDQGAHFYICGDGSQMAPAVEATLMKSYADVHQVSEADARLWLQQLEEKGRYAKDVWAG

SMILES: CC1=CCC(O)(C(C)C)CC1 (racemic) [terpinen-4-ol]
- Kd: 920 ± 260 nM
